Results taken from the NIST ThermoML archive (doi:10.1021/je050519g).
± gives the expanded uncertainty stated by the source.

Tests used:
[1] = 293.15 K; for surface tension liquid-gas: Pendant drop shape; for mass density: 101.33 kPa, Liquid
[2] = xn = mol fraction of the nth substance listed; details: 293.15 K; for surface tension liquid-gas: Pendant drop shape; for mass density: 101 kPa, Liquid

CC#N [acetonitrile]
[1]
Details	mass density [kg/m3]	surface tension liquid-gas [mN/m]
–	778.3 ± 0.31	29.25 ± 0.34

CCCCCO [pentan-1-ol] + CC#N
[2]
Details	mass density [kg/m3]	surface tension liquid-gas [mN/m]
x2 = 0.1003	812.2 ± 0.47	25.49 ± 0.34
x2 = 0.2031	809.06 ± 0.44	25.54 ± 0.34
x2 = 0.3014	806.03 ± 0.41	25.57 ± 0.33
x2 = 0.5003	799.64 ± 0.37	25.82 ± 0.33
x2 = 0.7	792.42 ± 0.33	26.64 ± 0.33
x2 = 0.8001	788.11 ± 0.32	27.29 ± 0.33
x2 = 0.8993	783.38 ± 0.31	28.11 ± 0.34

CCCO [propan-1-ol]
[1]
Details	mass density [kg/m3]	surface tension liquid-gas [mN/m]
–	801.3 ± 0.4	23.78 ± 0.32

CCCCCO [pentan-1-ol]
[1]
Details	mass density [kg/m3]	surface tension liquid-gas [mN/m]
–	815.11 ± 0.5	25.46 ± 0.34

CC#N [acetonitrile] + CCO
[2]
Details	mass density [kg/m3]	surface tension liquid-gas [mN/m]
x1 = 0.0999	786.57 ± 0.31	22.81 ± 0.31
x1 = 0.2007	785.99 ± 0.31	23.3 ± 0.31
x1 = 0.3039	785.05 ± 0.3	23.85 ± 0.31
x1 = 0.5001	783.08 ± 0.3	25.06 ± 0.32
x1 = 0.6994	780.89 ± 0.3	26.51 ± 0.33
x1 = 0.8013	779.8 ± 0.3	27.36 ± 0.33
x1 = 0.8996	778.91 ± 0.3	28.26 ± 0.34

CCO [ethanol]
[1]
Details	mass density [kg/m3]	surface tension liquid-gas [mN/m]
–	786.44 ± 0.31	22.31 ± 0.3

CC#N [acetonitrile] + CO
[2]
Details	mass density [kg/m3]	surface tension liquid-gas [mN/m]
x1 = 0.1001	788.46 ± 0.35	23.8 ± 0.32
x1 = 0.2011	788.04 ± 0.34	24.73 ± 0.32
x1 = 0.2996	787.13 ± 0.33	25.53 ± 0.32
x1 = 0.4997	784.82 ± 0.32	26.85 ± 0.33
x1 = 0.7012	782.13 ± 0.31	27.94 ± 0.34
x1 = 0.8009	780.75 ± 0.31	28.42 ± 0.34
x1 = 0.8956	779.47 ± 0.31	28.85 ± 0.34

CCCCO [butan-1-ol]
[1]
Details	mass density [kg/m3]	surface tension liquid-gas [mN/m]
–	807.33 ± 0.35	24.5 ± 0.32

CC#N [acetonitrile] + CCCCO
[2]
Details	mass density [kg/m3]	surface tension liquid-gas [mN/m]
x1 = 0.1026	805.36 ± 0.34	24.65 ± 0.32
x1 = 0.2021	803.18 ± 0.34	24.78 ± 0.32
x1 = 0.302	800.8 ± 0.33	24.94 ± 0.32
x1 = 0.5024	795.42 ± 0.32	25.52 ± 0.32
x1 = 0.7014	789.23 ± 0.31	26.53 ± 0.33
x1 = 0.8007	785.7 ± 0.31	27.25 ± 0.33
x1 = 0.8995	782.01 ± 0.3	28.14 ± 0.34

CO [methanol]
[1]
Details	mass density [kg/m3]	surface tension liquid-gas [mN/m]
–	787.83 ± 0.36	22.78 ± 0.31

CC#N [acetonitrile] + CCCO
[2]
Details	mass density [kg/m3]	surface tension liquid-gas [mN/m]
x1 = 0.1004	799.54 ± 0.34	24.02 ± 0.32
x1 = 0.2018	797.63 ± 0.34	24.23 ± 0.32
x1 = 0.3013	795.62 ± 0.33	24.52 ± 0.32
x1 = 0.5004	791.05 ± 0.32	25.32 ± 0.32
x1 = 0.7003	785.97 ± 0.31	26.5 ± 0.33
x1 = 0.8002	783.29 ± 0.31	27.27 ± 0.33
x1 = 0.8997	780.68 ± 0.3	28.19 ± 0.34
